Test [1] has as its system ACE. Set-up: method as in PMID 22224920. The note with it: bromelain-generated peptide from Misgurnus anguillicaudatus tissue protein; cited from earlier work.
Test [2] concerns the target T1, angiotensin I-converting enzyme (from rabbit lung) (Oryctolagus cuniculus, UniProt P12822).
T1 construct: angiotensin I-converting enzyme (from rabbit lung); purchased Sigma Aldrich (St. Louis, Mo, USA); host or cells: rabbit lung (tissue-derived)
T1 sequence (P12822 34-1310): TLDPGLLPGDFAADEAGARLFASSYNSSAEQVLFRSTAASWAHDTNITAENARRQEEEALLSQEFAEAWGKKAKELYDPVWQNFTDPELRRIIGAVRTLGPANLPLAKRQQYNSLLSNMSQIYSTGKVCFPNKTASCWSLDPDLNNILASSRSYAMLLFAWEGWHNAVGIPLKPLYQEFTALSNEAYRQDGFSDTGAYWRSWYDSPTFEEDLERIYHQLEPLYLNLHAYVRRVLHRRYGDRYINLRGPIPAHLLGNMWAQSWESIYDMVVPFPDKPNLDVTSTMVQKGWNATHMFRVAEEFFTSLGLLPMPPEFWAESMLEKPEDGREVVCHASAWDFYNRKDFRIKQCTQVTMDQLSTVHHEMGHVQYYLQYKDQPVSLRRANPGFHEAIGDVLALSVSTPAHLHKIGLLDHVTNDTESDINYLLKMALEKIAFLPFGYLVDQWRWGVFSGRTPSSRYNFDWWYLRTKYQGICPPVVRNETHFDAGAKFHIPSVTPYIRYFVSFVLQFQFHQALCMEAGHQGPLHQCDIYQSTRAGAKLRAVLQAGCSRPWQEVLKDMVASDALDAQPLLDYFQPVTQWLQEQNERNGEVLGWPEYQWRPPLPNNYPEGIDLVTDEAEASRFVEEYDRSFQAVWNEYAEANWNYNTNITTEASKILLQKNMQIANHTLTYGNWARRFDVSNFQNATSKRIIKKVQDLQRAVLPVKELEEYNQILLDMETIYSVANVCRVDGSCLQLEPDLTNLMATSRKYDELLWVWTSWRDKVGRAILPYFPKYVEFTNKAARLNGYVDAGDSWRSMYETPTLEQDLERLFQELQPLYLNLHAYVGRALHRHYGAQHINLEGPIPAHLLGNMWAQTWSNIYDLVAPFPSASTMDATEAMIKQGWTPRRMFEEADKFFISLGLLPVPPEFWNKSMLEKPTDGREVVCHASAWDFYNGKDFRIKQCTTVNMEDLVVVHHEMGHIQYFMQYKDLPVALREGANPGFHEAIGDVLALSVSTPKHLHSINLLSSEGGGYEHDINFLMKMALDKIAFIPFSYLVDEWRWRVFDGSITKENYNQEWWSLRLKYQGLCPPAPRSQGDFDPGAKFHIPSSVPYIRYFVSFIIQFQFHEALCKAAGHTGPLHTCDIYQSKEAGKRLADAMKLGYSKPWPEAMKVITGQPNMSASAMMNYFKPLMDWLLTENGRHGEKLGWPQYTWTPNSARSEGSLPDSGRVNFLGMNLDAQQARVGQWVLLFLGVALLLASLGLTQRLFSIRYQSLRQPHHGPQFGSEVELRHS
The test is described as follows: ACE-inhibitory activity assay (HHL substrate, colorimetric at 410 nm) and IC50 determination. Format: biochemical. The note with it: mean ± SD, triplicate; for inhibition at 10000 µM: synthesized peptide at 10 mM; for IC50: synthesized peptide, non-linear regression. As for the experimental part:
The peptides were chemically synthesized through solid phase synthesis for peptides ≥ 5 amino acids with a percentage purity of > 90% and supplied by Genscript (New Jersey, USA). The ACE-inhibitory activity was measured according to Jimsheena & Gowda with minor modifications. The Peptides stock solutions were diluted over ranges of concentration for each peptide. A 15 μL of the peptide was pre-incubated with 10 μL of ACE (100 mU/mL) at 37°C for 10 min. Then 50 μL of the 5 mM HHL substrate containing 0.30 M NaCl in 50 mM borate buffer pH 8.30 was added and the incubation was continued for the next 60 min. The reaction was stopped using 1 M HCl. Benzene sulfonyl chloride (BSC) and pyridine were then added at 75 μL and 150 μL, respectively and the amount of hippuric acid produced was quantified by the intensity of the yellow color produced in a microplate reader at 410 nm. The ACE-inhibitory activity of the peptides was then calculated from the average of three values as follows: ACE−inhibition(%)=[(AC−AS)/(AC−AB)]×100 (1)
Where AC means absorbance of control (where ACE and substrate were present), AS means absorbance of sample (where peptide, ACE and substrate were present), while AB means the absorbance of blank (where only substrate was present).

No end group written: not given here.

“Ala-His-Leu-Leu (AHLL; printed: Ala-His-Leu-Leu)”: the IC50 in test [1] is 18.200 ± 0.900 µg/mL. As for LAPPTM [Leu-Ala-Pro-Pro-Thr-Met], in test [2], the inhibition at 10000 µM is 72.4 ± 1.99% and the IC50 amounted to 1310 ± 17 µM. In test [2], EHPVL [Glu-His-Pro-Val-Leu] returned an inhibition at 10000 µM of 54.8 ± 2.17% and an IC50 of 1680 ± 46 µM.

In test [2], EVLIQ [Glu-Val-Leu-Ile-Gln] displayed an inhibition at 10000 µM of 62.1 ± 2.15% and an IC50 of 1440 ± 17 µM. With KVPPKA [Lys-Val-Pro-Pro-Lys-Ala], in test [2], the inhibition at 10000 µM amounted to 81.4 ± 1.78% and the IC50 came to 980 ± 4 µM. In test [2], ALGPQFY [Ala-Leu-Gly-Pro-Gln-Phe-Tyr] had an inhibition at 10000 µM of 94.4 ± 2.05% and an IC50 of 12 ± 1 µM.

The values above are taken from PMC6542528, “Identification, structure-activity relationship and in silico molecular docking analyses of five novel angiotensin I-converting enzyme (ACE)-inhibitory peptides from stone fish (Actinopyga lecanora) hydrolysates” (PLoS ONE, 2019).
